Here are results for 1 compound from paper PMC4764579, “Structural insights into the mechanism of activation of the TRPV1 channel by a membrane-bound tarantula toxin” (eLife, 2016).

Positions of bridges follow the written chain, without caps; N, C: chain ends. Residues, ends and D or L forms follow the SMILES beside them.

This assay deals with T1, rat TRPV1 (Rattus norvegicus, UniProt O35433).
T1 construct: expressed in transfected cells; host or cells: Xenopus laevis oocytes (cRNA injection, pGEM-HE vector)
T1 sequence (O35433 whole entry): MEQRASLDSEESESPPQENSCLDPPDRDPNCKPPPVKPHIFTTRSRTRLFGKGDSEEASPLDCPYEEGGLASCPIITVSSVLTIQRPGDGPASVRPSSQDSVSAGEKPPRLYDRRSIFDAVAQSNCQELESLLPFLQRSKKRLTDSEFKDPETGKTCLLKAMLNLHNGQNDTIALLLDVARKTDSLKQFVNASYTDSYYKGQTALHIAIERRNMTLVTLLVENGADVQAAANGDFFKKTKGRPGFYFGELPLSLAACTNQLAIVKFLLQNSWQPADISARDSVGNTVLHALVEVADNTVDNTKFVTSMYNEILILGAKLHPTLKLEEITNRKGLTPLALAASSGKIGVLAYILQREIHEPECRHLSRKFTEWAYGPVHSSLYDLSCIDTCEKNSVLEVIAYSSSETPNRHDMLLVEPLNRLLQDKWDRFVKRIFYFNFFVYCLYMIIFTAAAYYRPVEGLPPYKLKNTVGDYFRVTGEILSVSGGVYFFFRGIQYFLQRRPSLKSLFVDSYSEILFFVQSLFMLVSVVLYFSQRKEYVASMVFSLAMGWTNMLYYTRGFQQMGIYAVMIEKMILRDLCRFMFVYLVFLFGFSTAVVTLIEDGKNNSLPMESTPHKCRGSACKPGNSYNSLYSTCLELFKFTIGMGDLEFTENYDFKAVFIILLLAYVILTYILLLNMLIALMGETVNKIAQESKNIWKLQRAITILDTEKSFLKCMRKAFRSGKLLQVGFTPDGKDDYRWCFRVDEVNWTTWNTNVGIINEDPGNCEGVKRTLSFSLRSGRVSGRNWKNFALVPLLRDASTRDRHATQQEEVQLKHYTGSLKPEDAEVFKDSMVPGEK
Briefly: Two-electrode voltage clamp recordings of oocytes expressing TRPV1, toxin current normalised to saturating capsaicin. Format: cell-based. The following applies: concentration-response, see Figure 3F. From the text:
Figure 3. Validation of the proposed structural model of the TRPV1-DkTx complex. Close-up of K1 (A) and K2 (B) in the top-ranking ROSETTA model of DkTx bound to TRPV1. Side chains of TRPV1 residues where mutation disrupts DkTx-induced channel activation (I599, F649, A657 and F659) ([Bohlen et al., 2010]) are highlighted in purple. (C) Representative time courses of TRPV1 activation at +120 mV by either DkTx (left panel), K1K1 (middle panel) or K2K2 (right panel) measured from a train of voltage-ramps in the whole-cell configuration with the TRPV1 expressed in HEK cells. […] Fractional dissociation 1 min after toxin removal was quantified across cells as the current amplitude 1 min after toxin removal divided by the steady-state current amplitude in the presence of the toxin. […] Activation of the full-length TRPV1 channel by the toxin at different concentrations was measured in oocytes at a holding voltage of −60 mV. […]
Xenopus laevis oocytes were surgically removed and gently shaken for 60 min in a solution of 82.5 mM NaCl, 2.5 mM KCl, 1 mM MgCl2, 5 mM HEPES and 2 mg/mL collagenase. […] TRPV1 activity was recorded under voltage clamp using a two-electrode voltage clamp (OC-725C; Warner Instruments) in a 150-μL recording chamber. The recorded data were filtered at 1 kHz and digitized at 5 kHz using a digidata analog/digital converter and pClamp software (Molecular Devices). […]
(In general: Two-electrode voltage clamp holds a large cell at a set potential and records current.)

For `CC[C@H](C)[C@@H]1NC(=O)[C@H](Cc2ccccc2)NC(=O)[C@H](C)NC(=O)[C@H](CC(C)C)NC(=O)[C@@H]2CCCN2C(=O)[C@@H]2CSSC[C@@H]3NC(=O)[C@H](C(C)C)NC(=O)[C@H](CCC(=O)O)NC(=O)CNC(=O)[C@H](CCC(=O)O)NC(=O)[C@H](CCCCN)NC(=O)[C@H](C)NC(=O)[C@@H](NC(=O)[C@@H](N)CC(N)=O)CSSC[C@H](NC(=O)[C@H](CSSC[C@@H](C(=O)N[C@@H](CCC(=O)O)C(=O)N[C@@H](CCCCN)C(=O)N[C@@H](Cc4ccc(O)cc4)C(=O)N[C@@H](CCCNC(=N)N)C(=O)O)NC(=O)[C@H](Cc4ccc(O)cc4)NC(=O)[C@@H]4CCCN4C1=O)NC(=O)[C@H](CCCCN)NC(=O)[C@H](CO)NC(=O)CNC(=O)[C@H](Cc1c[nH]c4ccccc14)NC(=O)CNC3=O)C(=O)N[C@@H](Cc1c[nH]cn1)C(=O)NCC(=O)N[C@@H](CC(C)C)C(=O)N[C@@H](CC(=O)O)C(=O)N2` [K2] (H-NCAKEGEVCGWGSKCCHGLDCPLAFIPYCEKYR-OH; disulfide 2-16, 9-21, 15-29 (inferred); N-terminus and C-terminus assumed), the “concentration range where activation of TRPV1 saturates (in words)” value is “low micromolar range”.
